Measurements as given in patent US8242080B2, “Inhibitors of the EGFR kinase targeting the asymmetric activating dimer interface” (The Regents of the University of California, priority 2006, dated 2012).
Where a SMILES comes first, the peptide text is derived from it.

Assays:
[1] = target: T1, wildtype EGFR kinase domain (Homo sapiens, UniProt P00533); test: Continuous enzyme-coupled kinase assay, substrate peptide KM; type: biochemical; details: preliminary experiments, substrate peptide at various concentrations; ATP 0.5 mM
T1 construct: DNA encoding residues 672-998 of human EGFR was cloned into pFAST BAC HT; made in house; host or cells: Sf9 insect cells (baculovirus, pFAST BAC HT; b247 prints 'SD cells')
Description: (§1) A continuous enzyme-coupled kinase assay was performed to measure the kinase activity of the proteins as described in Barker et al., ((1995) Biochemistry, Vol. 34(54): 14843-51), with modifications, as described herein. The ATP concentration was kept to 0.5 mM.
(§2) The buffer used contained 10 mM MgCl2, 20 mM Tris, and pH 7.5. […] The substrate peptide was derived from the region spanning Y1173 in EGFR ([…]) (SEQ ID NO: 7). All proteins used in this assay contained the N-terminal (His)6 tag unless otherwise noted.
For comparing the specific activity of the wildtype and various mutant forms of the EGFR kinase domain in the presence and absence of lipid vesicles, the density of DOGS-NTA-Ni on lipid vesicles was kept at 5 mole percent. […] Due to this high value of KM, the values of KM and kcat were not measured directly. Instead, the value of kcat/KM was derived from a linear fit to the data obtained, using concentrations of the peptide that are much lower than the estimated value of KM (V=[S]Vmax/(KM+[S]), V˜(Vmax/KM)[S] when [S]<<KM, kcat=Vmax/amount of the enzyme, where V and Vmax are the initial velocity and maximum initial velocity, respectively. (FIG. 6A).

activated EGFR kinase = target: T2, activated EGFR kinase (Homo sapiens, UniProt P00533); test: Inhibition of activated EGFR kinase (kinase assay with kinase domain attached to vesicles); type: biochemical; details: read-out: IC50 inhibiting activated EGFR kinase
T2 construct: DNA encoding residues 672-998 of human EGFR was cloned into pFAST BAC HT; made in house; host or cells: Sf9 insect cells (baculovirus, pFAST BAC HT; b247 prints 'SD cells')
Description: as §1, §2
The protein concentrations of the EGFR kinase domain used in the assay ranged from 3.5 to 14 μM. The total concentration of the DOGS-NTA-Ni in the bulk solution was kept to 12.5 μM in all assays with DOG-NTA-Ni-containing vesicles. For assays of the kinase domain attached to vesicles, the protein and vesicles were preincubated at 4° C. for ˜5 min.
The wildtype EGFR kinase domain was mixed with vesicles containing 0, 0.5, 1, 2 and 5 mole percent of DOGS-NTA-Ni prior to the start of the assay. The final concentration of the protein in the assay was 3.5 μM. […]
For comparing the specific activity of the wildtype and various mutant forms of the EGFR kinase domain in the presence and absence of lipid vesicles, the density of DOGS-NTA-Ni on lipid vesicles was kept at 5 mole percent. […] Due to this high value of KM, the values of KM and kcat were not measured directly. […]

Row | Compound | Km [1] | IC50 (activated EGFR kinase)
1 | CC(C)C[C@H](NC(=O)[C@H](Cc1ccc(O)cc1)NC(=O)[C@H](CCC(=O)O)NC(=O)[C@H](C)NC(=O)[C@H](CC(N)=O)NC(=O)[C@H](CCC(=O)O)NC(=O)[C@H](C)NC(=O)[C@@H](N)[C@@H](C)O)C(=O)N[C@@H](CCCNC(=N)N)C(=O)N[C@H](C(=O)N[C@@H](C)C(=O)N1CCC[C@H]1C(=O)N[C@@H](CCC(N)=O)C(=O)O)C(C)C [substrate peptide] (H-TAENAEYLRVAPQ-OH) | > 4 mM | 
2 | KSLPSYLNGVMPPTQSFAPDPKYVSS [40-mer peptide] |  | ~10 µM
